Laboratory results from patent US20170342064A1, “COMPOUNDS FOR THE TREATMENT OF CANCER” (Bayer Pharma Aktiengesellschaft, priority 2014, published 2017).

What was measured:
[1] = test system: HeLa human cervical tumor cells; assay: Proliferation assay (crystal violet), HeLa cells; type: cell-based; conditions: 96 h, 4 days incubation, crystal violet staining, read-out: Inhibition of cell proliferation, cell Line: HeLa IC50
Method: Cultivated tumor cells (MCF7, hormone dependent human mammary carcinoma cells, ATCC HTB22; NCI-H460, human non-small cell lung carcinoma cells, ATCC HTB-177; DU 145, hormone-independent human prostate carcinoma cells, ATCC HTB-81; HeLa-MaTu, human cervical carcinoma cells, EPO-GmbH, Berlin; HeLa-MaTu-ADR, multidrug-resistant human cervical carcinoma cells, EPO-GmbH, Berlin; HeLa human cervical tumor cells, ATCC CCL-2; B16F10 mouse melanoma cells, ATCC CRL-6475) were plated at a density of 5000 cells/well (MCF7, DU145, HeLa-MaTu-ADR), 3000 cells/well (NCI-H460, HeLa-MaTu, HeLa), or 1000 cells/well (B16F10) in a 96-well multititer plate in 200 μl of their respective growth medium supplemented 10% fetal calf serum. After 24 hours, the cells of one plate (zero-point plate) were stained with crystal violet (see below), while the medium of the other plates was replaced by fresh culture medium (200 μl), to which the test substances were added in various concentrations (0 μM, as well as in the range of 0.01-30 μM; the final concentration of the solvent dimethyl sulfoxide was 0.5%). The cells were incubated for 4 days in the presence of test substances. Cell proliferation was determined by staining the cells with crystal violet: the cells were fixed by adding 20 μl/measuring point of an 11% glutaric aldehyde solution for 15 minutes at room temperature. After three washing cycles of the fixed cells with water, the plates were dried at room temperature. The cells were stained by adding 100 μl/measuring point of a 0.1% crystal violet solution (pH 3.0). After three washing cycles of the stained cells with water, the plates were dried at room temperature. The dye was dissolved by adding 100 μl/measuring point of a 10% acetic acid solution. The extinction was determined by photometry at a wavelength of 595 nm. The change of cell number, in percent, was calculated by normalization of the measured values to the extinction values of the zero-point plate (=0%) and the extinction of the untreated (0 μm) cells (=100%). The IC50 values were determined by means of a 4 parameter fit.
The reference examples described above are characterized by the following IC50 values, determined in a HeLa cell proliferation assay (as described above): […]

[2] = In vitro stability in rat plasma (HPLC detection); type: in vitro ADME, wistar rat; conditions: 37° C., HPLC peak area ratio
Method: (§1) 1 mg of test compound is dissolved in 1.25 ml dimethylsulfoxide. Then 1.25 ml water are added. 0.5 ml of this sample solution are mixed with 0.5 ml heparinized and 37° C. warm plasma (wistar rat plasma or human plasma). A first sample (10 μl) is immediately taken for HPLC analysis. In the period up to 4 h after the start of incubation further 10 μl aliquots are taken after 30, 60, 90, 120 and 240 minutes and the amount of the test compound is determined. Agilent 1100 with DAD (G1315A), binary pump (G1312A), autosampler (G1329A), column oven (G1316A), thermostat (G1330B); column: Kromasil 100 C18, 250 mm×4 mm, 5 μm; column temperature: 45° C.; eluent A: water+5 ml of perchloric acid/litre, eluent B: acetonitrile. 0 min 98% A, 2% B→0-3.0 min 85% A, 15% B→3.0-8.0 min 55% A, 45% B→8.0-16.0 min 55% A, 45% B→16.0-20.0 min 10% A, 90% B→20.0-21.0 10% A, 90% B→21.0-24.0 min 98% A, 2% B→24.0-25.0 min 98% A, 2% B; flow rate: 1.5 ml/min; UV detection: 222 nm.

[3] = Stability in buffer at pH 7.4; type: physicochemical; conditions: buffer pH 7.4, 37° C., HPLC peak area ratio
Method: 0.3 mg of the test compound are solved in 0.1 ml dimethylsulfoxide and 0.4 ml acetonitrile. For complete dissolution the HPLC vial with the sample solution is sonified for about 20 seconds. Then 1.0 ml of the buffer solution is added, and the sample is again treated in the ultrasonic bath. 90 g of sodium chloride, 13.61 g of potassium dihydrogen phosphate and 83.35 g of 1 M sodium hydroxide solution are made up to 1 litre with Millipore water and then diluted 1:10. 10 μl portions of the sample solution are analysed by HPLC to determine the amount of the test compound over a period of 24 hours at 37° C. The peak areas in percentage are used for quantification. Agilent 1100 with DAD (G1315B), binary pump (G1312A), autosampler (G1329A), column oven (G1316A), thermostat (G1330B); column: Kromasil 100 C18, 250 mm×4 mm, 5 μm; column temperature: 37° C.; eluent A: water+5 ml of perchloric acid/litre, eluent B: acetonitrile. 0 min 98% A, 2% B→0-3.0 min 85% A, 15% B→3.0-8.0 min 50% A, 50% B→8.0-16.0 min 50% A, 50% B→16.0-20.0 min 10% A, 90% B→20.0-21.0 10% A, 90% B→21.0-24.0 min 98% A, 2% B→24.0-25.0 min 98% A, 2% B; flow rate: 1.5 ml/min; UV detection: 210 nm. The ratio of the peak areas (F) at different time points in relation to the peak areas at the starting time are shown in Table 1 for representative examples: […]

[4] = In vitro stability in human plasma (HPLC detection); type: in vitro ADME; conditions: 37° C., HPLC peak area ratio
Method: as §1

IC50 [1] [µM]	SMILES	also measured
≤ 0.2	COc1cc(S(C)(=O)=O)ccc1Nc1nc2cc(-c3ccc(NC(=O)[C@H](C)c4ccc(F)cc4)cc3)ccn2n1 [01.01, (2R)-2-(4-fluorophenyl)-N-[4-(2-{[2-methoxy-4-(methylsulfonyl)phenyl]amino}[1,2,4]triazolo[1,5-a]pyridin-7-yl)phenyl]propanamide]	–
–	C[C@@H](C(=O)Nc1ccc(-c2ccn3nc(N(C(=O)OCOC(=O)[C@@H](N)C(C)(C)C)c4ccc(C(=O)N5CC(F)C5)cc4OCC(F)(F)F)nc3c2)cc1)c1ccc(F)cc1.Cl [Example 1.1, [({4-[(3-fluoroazetidin-1-yl)carbonyl]-2-(2,2,2-trifluoroethoxy)phenyl}[7-(4-{[(2R)-2-(4-fluorophenyl)propanoyl]amino}phenyl)[1,2,4]triazolo[1,5-a]pyridin-2-yl]carbamoyl)oxy]methyl 3-methyl-L-valinate hydrochloride]	% Test Compound after 4 h [F(t = 24 h) × 100/F(t = 0 h)] [2]: 0.0%; % Test Compound after 24 h [F(t = 24 h) × 100/F(t = 0 h)] [3]: 0.0%; % Test Compound after 4 h [F(t = 24 h) × 100/F(t = 0 h)] [4]: 0.0%
≤ 0.1	COc1cc(C(=O)N2CC(F)C2)ccc1Nc1nc2cc(-c3ccc(NC(=O)[C@H](C)c4ccc(F)cc4)cc3)ccn2n1 [Reference Example 01.02, (2R)—N-{4-[2-({4-[(3-fluoroazetidin-1-yl)carbonyl]-2-methoxyphenyl}amino)[1,2,4]triazolo[1,5-a]pyridin-7-yl]phenyl}-2-(4-fluorophenyl)propanamide]	–
≤ 0.1	C[C@@H](C(=O)Nc1ccc(-c2ccn3nc(Nc4ccc(C(=O)N5CC(F)C5)cc4OCC(F)(F)F)nc3c2)cc1)c1ccc(F)cc1 [Reference Example 01.03, (2R)—N-{4-[2-({4-[(3-fluoroazetidin-1-yl)carbonyl]-2-(2,2,2-trifluoroethoxy)phenyl}amino)[1,2,4]triazolo[1,5-a]pyridin-7-yl]phenyl}-2-(4-fluorophenyl)propanamide]	–
≤ 0.1	C[C@@H](C(=O)Nc1ccc(-c2ccn3nc(Nc4ccc(S(C)(=O)=O)cc4OCC(F)(F)F)nc3c2)cc1)c1ccc(F)cc1 [Reference Example 01.05, (2R)-2-(4-fluorophenyl)-N-[4-(2-{[4-(methylsulfonyl)-2-(2,2,2-trifluoroethoxy)phenyl]amino}[1,2,4]triazolo[1,5-a]pyridin-7-yl)phenyl]propanamide]	–
≤ 0.1	COc1cc(C(=O)N2CCC2)ccc1Nc1nc2cc(-c3ccc(NC(=O)[C@H](C)c4ccc(F)cc4)cc3)ccn2n1 [Reference Example 01.06, (2R)—N-[4-(2-{[4-(azetidin-1-ylcarbonyl)-2-methoxyphenyl]amino}[1,2,4]triazolo[1,5-a]pyridin-7-yl)phenyl]-2-(4-fluorophenyl)propanamide]	–
